The values below come from patent US20090311685A1, “NMU-GHSR1b/NTSR1 oncogenic signaling pathway as a therapeutic target for lung cancer” (Oncotherapy Science, Inc, priority 2006, published 2009).

For assay [1], the system named is COS-7 cells. As to the kind of experiment: Autocrine assay: growth of cells cultured with NMU-25 (MTT, colony formation). As to conditions: 0.3 to 15 μM, vs BSA control, 144 hours. Format: cell-based. As to the method: To confirm the autocrine function of NMU in the growth of mammalian cells, COS-7 cells were cultured in medium containing the active form of a 25-amino-acid polypeptide of NMU (NMU-25; Sigma-Aldrich Co.) at final concentrations of 0.3 to 15 μM. The same concentrations of BSA served as controls. The peptides/proteins were added every 48 hours for 6 days. At the 144-hours time point, cell proliferation was evaluated by MTT and colony-formation assays.

Assay [2] has as its target T1, endogenous GHSR1b and NTSR1 on PC14 cells (Homo sapiens, UniProt P30989+Q92847).
T1 construct: endogenous in cells; host or cells: PC14
As to the kind of experiment: Ligand-receptor binding assay with Cy5-labeled NMU-25. As to conditions: 10-fold excess unlabeled NMU-25. The procedure: (§1) To confirm the binding of NMU-25 to endogenous candidate receptors on the NSCLC cell, a receptor-ligand binding assay using LC319 and PC14 cells that express GHSR1b and NTSR1, but not NMU1R and NMU2R were performed. Specifically, trypsinized cells were seeded onto a 96-well (with black wall and clear bottom) microtiter plates 24 hours prior to the assay. The medium was removed and the cells were incubated with CyS-labeled NMU-25 peptide (1 μM) with or without the addition of 10-fold excess unlabeled NMU-25 peptide as the competitor. The plate was incubated in dark for 24 hours at 37° C. and then scanned on 8200 Cellular Detection System (Applied Biosystems) to quantify the amount of CyS fluorescence probe bound to the surface of each cell. (15) Immunocytochemistry for Internalized Receptors

In assay [3] the target is T2, endogenous GHSR1b and NTSR1 on LC319 cells (Homo sapiens, UniProt P30989+Q92847).
T2 construct: endogenous in cells; host or cells: LC319
T2 sequence (Q92847 1-289 isoform Q92847-2): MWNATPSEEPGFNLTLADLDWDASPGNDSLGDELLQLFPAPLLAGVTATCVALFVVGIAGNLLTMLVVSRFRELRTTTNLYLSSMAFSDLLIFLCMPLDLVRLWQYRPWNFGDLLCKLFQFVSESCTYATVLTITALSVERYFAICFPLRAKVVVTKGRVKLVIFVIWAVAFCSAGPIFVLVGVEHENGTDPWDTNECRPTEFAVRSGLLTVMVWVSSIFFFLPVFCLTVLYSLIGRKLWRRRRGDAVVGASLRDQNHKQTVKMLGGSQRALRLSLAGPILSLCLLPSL
T2 sequence (P30989 whole entry): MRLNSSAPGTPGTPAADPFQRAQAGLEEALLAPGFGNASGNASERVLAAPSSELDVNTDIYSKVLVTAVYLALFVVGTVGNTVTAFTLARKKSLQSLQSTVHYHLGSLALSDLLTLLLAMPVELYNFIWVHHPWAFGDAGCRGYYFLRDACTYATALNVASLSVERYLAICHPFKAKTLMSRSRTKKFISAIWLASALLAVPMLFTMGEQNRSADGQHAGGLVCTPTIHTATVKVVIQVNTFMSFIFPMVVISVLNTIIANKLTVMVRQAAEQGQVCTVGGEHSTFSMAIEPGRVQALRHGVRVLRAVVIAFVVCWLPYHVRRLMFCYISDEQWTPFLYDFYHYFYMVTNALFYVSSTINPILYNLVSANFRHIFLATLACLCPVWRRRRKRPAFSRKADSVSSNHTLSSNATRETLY
The description is as above. Conditions: 10-fold excess unlabeled NMU-25. As to the method: as §1

Assay [4] addresses T3, GHSR1b/NTSR1 (Homo sapiens, UniProt P30989+Q92847, A200T).
T3 construct: expressed in transfected cells; host or cells: COS-7
As to the kind of experiment: Immunocytochemistry for internalized receptors, transfected COS-7 cells. Conditions: COS-7 cells with introduced receptors, 10 μM, time-dependent. Format: cell-based. As to the method:
To investigate the association of NMU-25 with its candidate receptors, GHSR1b and NTSR1, the following experiments were performed. The entire coding region of each of the receptor genes was amplified by RT-PCR using primers: […]
The products were digested with EcoRI and BamHI and cloned into appropriate sites of p3XFLAG-CMV10 vector (Sigma-Aldrich Co.). COS-7 cells were transfected with FLAG-tagged GHSR1b or NTSR1 expression plasmid using FuGENE 6 Transfection Reagent as described above. The cells subjected to internalization assays were exposed to NMU-25 (10 μM) for 120 min. The cells were then fixed with 4% paraformaldehyde solution for 15 min at 37° C., and washed with PBS(−). Specimens were incubated in PBS(−) containing 0.1% Triton X-100 for 10 min and subsequently washed with PBS(−). Prior to primary antibody reaction, the cells were incubated in CAS-BLOCK (ZYMED Laboratories Inc.) for 10 min to block non-specific antibody binding. Then, the cells were incubated with both rabbit polyclonal and anti-GHSR antibody and goat polyclonal anti-NTSR1 antibody. The antibodies were stained with both anti-rabbit secondary antibody conjugated to Alexa Fluor 488 (Molecular Probes) and anti-goat secondary antibody conjugated to Alexa Fluor 594 (Molecular Probes). […] Images were viewed and assessed using confocal microscopy (TCS SP2 AOBS; Leica Microsystems).

In assay [5] the target is T4, GHSR1b/NTSR1 (Homo sapiens, UniProt P30989+Q92847).
T4 construct: endogenous in cells; host or cells: LC319
T4 sequence (Q92847 1-289 isoform Q92847-2): as the sequence (Q92847 1-289 isoform Q92847-2) above
T4 sequence (P30989 whole entry): as the sequence (P30989 whole entry) above
In words: Immunocytochemistry for internalized receptors, endogenous receptors in LC319 cells. Format: cell-based.

The test system of assay [6] is SK-MES-1 cells. As to the kind of experiment: Measurement of cAMP levels (cAMP EIA). Format: cell-based, human. Conditions: expressing either of the receptors, 3 to 50 μM. The procedure: (§2) Trypsinized LC319, REF-LC-AI, NCI-H358 and SK-MED-1 cells were seeded onto a 96-well microtiter plate (5.0×10^4 cells) and cultured in appropriate medium supplemented with 10% FCS for 24 hours, and then the medium was changed to serum free/1 mM IBMX (isobutylmethylxanthine) 20 min prior to the assay. Next, the cells were incubated with individual concentrations of peptides (NMU-25, GHRL, or NTS) for 20 min and cAMP levels of the cells were measured using cAMP EIA System (GE Healthcare Bio-sciences).
For orientation: Changes in cAMP serve as a functional read-out for many G protein-coupled receptors.

The test system of assay [7] is LC319 cells. As to the kind of experiment: Measurement of cAMP levels (cAMP EIA). Format: cell-based, human. As to conditions: for cAMP production: final concentrations of 3 to 100 μM. As to the method: as §2
Assay [8] deals with RERF-LC-AI cells. As to the kind of experiment: Measurement of cAMP levels (cAMP EIA). As to conditions: both receptors at low levels, 3 to 50 μM. Format: cell-based, human. The procedure: as §2
For assay [9], the system named is NCI-H358 cells. In words: Measurement of cAMP levels (cAMP EIA). Format: cell-based, human. As to conditions: expressing either of the receptors, 3 to 50 μM. The procedure:
as §2

In assay [10] the test system is FOXM1. In words: Induction of FOXM1 expression by NMU ligand-receptor signaling in LC319 cells. Format: cell-based, human. Conditions: 25 μM, vs BSA control. The procedure:
Total RNA was extracted from cultured cells and clinical tissues using Trizol reagent (Life Technologies, Inc.) according to the manufacturer's protocol. Extracted RNAs and normal human tissue poly(A) RNAs were treated with DNaseI (Nippon Gene) and were reverse-transcribed using oligo(dT)20 primer and SuperSpcript II reverse transcriptase (Invitrogen). Semiquantitative RT-PCR experiments were carried out with the following synthesized gene-specific primers and beta-actin (ACTB)-specific primers as internal control: […]

In assay [11] the test system is LC319 cells. As to the kind of experiment: Intracellular Ca^2+ mobilization assay (FLIPR). Format: cell-based, human. As to the method:
Trypsinized LC319 cells were seeded onto poly-D-lysine coated 384-well black-wall, clear-bottom microtiter plate (1.0×10^4 cells/ml) 24 hours prior to the assay. The cells were loaded for 1 hour with 4 μM Fluo-3-AM fluorescent indicator dye in assay buffer (Hank's balanced salt solution, 20 mM HEPES, 2.5 mM probenecid), washed three times with assay buffer, and then incubated for 10 min at room temperature before detection on fluorometric imaging plate reader (FLIPR; Molecular Devices). Fluorescence data of Ca^2+ release were collected in real-time at 1 sec intervals for the first 65 sec and at 3 sec intervals for additional 300 sec after individual concentrations of peptide (NMU-25, […], or NTS) treatment. Maximum change in fluorescence over baseline was measured to determine the response of the cells to the individual peptide stimulations.

In assay [12] the test system is NSCLC cells. In words: Competition of NMU-induced cAMP production. Format: cell-based.
Assay [13] concerns the target T5, NMU1R-expressing cells (Homo sapiens, UniProt Q9HB89).
T5 construct: host or cells: NMU1R-expressing cells
T5 sequence (Q9HB89 1-426): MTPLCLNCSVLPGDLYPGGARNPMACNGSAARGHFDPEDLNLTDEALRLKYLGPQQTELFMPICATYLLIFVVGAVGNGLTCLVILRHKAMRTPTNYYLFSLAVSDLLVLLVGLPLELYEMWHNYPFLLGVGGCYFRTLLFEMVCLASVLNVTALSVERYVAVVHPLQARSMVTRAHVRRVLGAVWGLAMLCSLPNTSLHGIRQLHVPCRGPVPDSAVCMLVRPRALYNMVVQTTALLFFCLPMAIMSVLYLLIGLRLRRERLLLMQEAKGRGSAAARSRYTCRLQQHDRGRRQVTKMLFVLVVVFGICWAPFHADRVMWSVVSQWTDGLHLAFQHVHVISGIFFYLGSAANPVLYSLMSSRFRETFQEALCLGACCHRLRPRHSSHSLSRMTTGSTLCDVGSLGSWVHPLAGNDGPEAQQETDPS
Conditions: cited from earlier work.

T3 sequence (Q92847 1-289 isoform Q92847-2, stated change not applied): as the sequence (Q92847 1-289 isoform Q92847-2) above
T3 sequence (P30989 whole entry A200T): as the sequence (P30989 whole entry) above, with A200T counted along it
T1 sequence (Q92847 1-289 isoform Q92847-2): as the sequence (Q92847 1-289 isoform Q92847-2) above
T1 sequence (P30989 whole entry): as the sequence (P30989 whole entry) above

Take “NMU-25: active form of a 25-amino-acid polypeptide of NMU (Sigma-Aldrich Co.) (FRVDEEFQSPFASQSRGYFLFRPRN)”: the “cell growth (MTT assay)” value in assay [1] is “enhanced cell growth in a dose-dependent manner”. Also, in assay [1], the “cell growth (colony-formation assay)” value is “enhanced cell growth in a dose-dependent manner”. The “binding activity of Cy5-labeled NMU-25 with unlabeled competitor” value in [2] and in [3] was “inhibited” each time. Further, the “subcellular distribution of GHSR1b and NTSR1 after stimulation” value is “co-internalized” in assay [4] and “induced co-internalization” in assay [5]. Further, the “intracellular cAMP production by NMU-25 (FIG. 3D)” value in assay [6] is “did not show detectable cAMP production”. In addition, in assay [7], the cAMP production result was “Enhancement of cAMP production”. Also, in assay [7] (high levels of both receptors, 3 to 50 μM), the “intracellular cAMP production by NMU-25 (FIG. 3A)” value is “marked and reproducible cAMP accumulation”. The “intracellular cAMP production by NMU-25 (FIG. 3B)” value in assay [8] was “not significant but low cAMP production”. Also, the “intracellular cAMP production by NMU-25 (FIG. 3C)” value in assay [9] is reported as “did not show detectable cAMP production”. For the same substance, the “expression of FOXM1” value in assay [10] is given as “enhanced expression of FOXM1”.
Consider “ghrelin (GSSFLSPEHQRVQQRKESKKPPAKLQPR) [GHRL, 28-amino-acid peptide, known ligand of GHSR]”, for which the “intracellular Ca^2+ flux / mobilization” value in assay [11] is “not the treatment with GHRL caused the mobilization response”. In assay [12], the “NMU-induced cAMP production” value is recorded as “competitively inhibited”. Also, the “displacement of 125I-labeled rat NMU-binding” value in [13] was “did not displace”. The cAMP production entry in assay [7] is listed as “did not enhance”.
